Laboratory results from ChEMBL document CHEMBL3228010, “Potential antitumor agents. 29. Quantitative structure-activity relationships for the antileukemic bisquaternary ammonium heterocycles” (J Med Chem, 1979).

Experiments:
[1] = tested on: L1210; test: Antitumor activity against mouse L1210 cells […] in ip dosed C3H X DBA2 F1 hybrid mouse on day 0 and dosed at LD10 level once daily on days 1 to 5 assessed as increase in life span relative to control; type: functional
[2] = organism: Bos taurus; test: Displacement of ethidium from calf thymus DNA by fluorimetric method
[3] = tested on: Mus musculus; test: Toxicity in ip dosed C3H X DBA2 F1 hybrid mouse […] with mouse L1210 cells on day 0 and dosed once daily on days 1 to 5 measured after 50 days; type: organism-based; settings: in vivo, 1200 h
[4] = tested on: L1210; test: Antitumor activity against mouse L1210 cells […] in ip dosed C3H X DBA2 F1 hybrid mouse on day 0 and dosed once daily on days 1 to 5 assessed as increase in life span relative to control; type: functional
[5] = Lipophilic-hydrophilic balance, Rm of the compound by partition chromatography; type: physicochemical
[6] = Displacement of ethidium from poly[d(A-T)]-poly[d(A-T)] DNA by fluorimetric method
[7] = Displacement of ethidium from poly[d(G-C)]-poly[d(G-C)] DNA (unknown origin) by fluorimetric method

Structure (SMILES)	log(ILSmax) [1]	C50 [2] [µM]	LD10 [3] [mg/kg]	D40 [4] [mg/kg]	Rm [5]	C50 [6] [µM]	C50 [7] [µM]
C[n+]1ccc(Nc2ccc(NC(=O)c3ccc(Nc4cc[n+](C)c5cc(Cl)ccc45)cc3)cc2)cc1.[Br-].[Br-]	1.97	1	39	12	0.31	0.21	2.27
C[n+]1ccc(Nc2ccc(NC(=O)c3ccc(C(=O)Nc4ccc(Nc5cc[n+](C)c(N)n5)cc4)cc3)cc2)nc1N.Cc1ccc(S(=O)(=O)[O-])cc1.Cc1ccc(S(=O)(=O)[O-])cc1	2.2	0.45	75	8.6	-0.64	0.29	0.64
C[n+]1cccc(NC(=O)c2ccc(NC(=O)c3cccc(C(=O)Nc4ccc(C(=O)Nc5ccc[n+](C)c5)cc4)c3)cc2)c1.Cc1ccc(S(=O)(=O)[O-])cc1.Cc1ccc(S(=O)(=O)[O-])cc1	1.85	0.9	35	25	0.2	1.2	1.9
Cc1ccc(S(=O)(=O)[O-])cc1.Cc1ccc(S(=O)(=O)[O-])cc1.Cc1ccc2c(c1)c(Nc1ccc(C(=O)Nc3ccc(Nc4cc[n+](C)cc4)cc3)cc1)cc[n+]2C	2.17	1.05	15	1	0.51	0.17	2.28
Br.C/C(=N\NC(=N)N)c1ccc(C(=O)Nc2ccc(Nc3cc[n+](C)c4cc(N)ccc34)cc2)cc1.[Br-]	2.28	0.35	165	30	-0.35	0.17	0.6
CC[n+]1cccc(NC(=O)c2ccc(NC(=O)c3ccc(C(=O)Nc4ccc5c(ccc[n+]5CC)c4)cc3)cc2)c1.Cc1ccc(S(=O)(=O)[O-])cc1.Cc1ccc(S(=O)(=O)[O-])cc1	2.2	0.74	9	2.3	0.09	0.62	1.48
Cc1cc(Nc2ccc(NC(=O)c3ccc(C(=O)Nc4ccc(Nc5cc(C)[n+](C)c(N)n5)cc4)cc3)cc2)nc(N)[n+]1C.Cc1ccc(S(=O)(=O)[O-])cc1.Cc1ccc(S(=O)(=O)[O-])cc1	2.12	0.5	250	75	-0.71	0.4	0.8
C[n+]1cccc(NC(=O)c2ccc(NC(=O)c3ccc(C(=O)Nc4ccc(C(=O)Nc5ccc[n+](C)c5)cc4Cl)cc3)c(Cl)c2)c1.Cc1ccc(S(=O)(=O)[O-])cc1.Cc1ccc(S(=O)(=O)[O-])cc1	1.6	1.3	50	50	0.36	1.3	1.5
Cc1ccc(S(=O)(=O)[O-])cc1.Cc1ccc(S(=O)(=O)[O-])cc1.Cc1cccc2c(Nc3ccc(C(=O)Nc4ccc(Nc5cc[n+](C)cc5)cc4)cc3)cc[n+](C)c12	2.02	0.87	60	12	0.51	0.31	2.01
CC[n+]1cc(-c2ccc(NC(=O)c3ccc(C(=O)Nc4ccc(-c5c[n+](CC)c(N)nc5N)cc4)cc3)cc2)c(N)nc1N.Cc1ccc(S(=O)(=O)[O-])cc1.Cc1ccc(S(=O)(=O)[O-])cc1	2.17	0.84	15	3.5	-0.19	0.45	2.1
C[n+]1cccc2ccc(NC(=O)c3ccc(NC(=O)c4ccc(C(=O)Nc5ccc6ccc[n+](C)c6c5)cc4)cc3)cc21.Cc1ccc(S(=O)(=O)[O-])cc1.Cc1ccc(S(=O)(=O)[O-])cc1	1.85	0.16	34	15	-0.76	0.16	0.25
CC(=O)Nc1ccc2c(Nc3ccc(NC(=O)c4ccc(Nc5cc[n+](C)cc5)cc4)cc3)cc[n+](C)c2c1.Cc1ccc(S(=O)(=O)[O-])cc1.Cc1ccc(S(=O)(=O)[O-])cc1	2.26	0.34	97	10	-0.1	0.13	0.53
C[n+]1ccc(-c2ccc(-c3ccc(-c4ccc(/N=N/Nc5ccc(C(=O)Nc6ccc(-c7ccc(-c8ccc(-c9cc[n+](C)cc9)cc8)cc7)cc6)cc5)cc4)cc3)cc2)cc1.Cc1ccc(S(=O)(=O)[O-])cc1.Cc1ccc(S(=O)(=O)[O-])cc1	2.34	0.83	6	1.4	-0.22	0.1	0.38
Br.C/C(=N\NC(=N)N)c1ccc(NC(=O)Nc2ccc(Nc3cc[n+](C)c4ccc(N)cc34)cc2)cc1.[Br-]	2.2	0.42	150	18.5	-0.15	0.25	0.53
C[n+]1ccc(Nc2ccc(C(=O)Nc3ccc(Nc4cc[n+](C)c5cc(N)ccc45)cc3)c(N)c2)cc1.Cc1ccc(S(=O)(=O)[O-])cc1.Cc1ccc(S(=O)(=O)[O-])cc1	2.38	0.44	20	1.7	-0.12	0.14	0.77
C[n+]1cc(-c2ccc(NC(=O)/C=C/c3ccc(C(=O)Nc4ccc(-c5c[n+](C)c(N)nc5N)cc4)cc3)cc2)c(N)nc1N.Cc1ccc(S(=O)(=O)[O-])cc1.Cc1ccc(S(=O)(=O)[O-])cc1	2.2	0.4	50	10.7	-0.62	0.11	0.57
C[n+]1ccc(Nc2ccc(NC(=O)/C=C/c3ccc(Nc4cc[n+](C)c5ccccc45)cc3)cc2)cc1.[Br-].[Br-]	2.22	0.38	22	1.3	0.28	0.15	0.71
C[n+]1ccc(Nc2ccc(NC(=O)/C=C/c3ccc(C(=O)Nc4ccc(Nc5cc[n+](C)cc5)cc4)cc3)cc2)cc1.Cc1ccc(S(=O)(=O)[O-])cc1.Cc1ccc(S(=O)(=O)[O-])cc1	2.28	0.43	11	4.2	-0.34	0.14	0.51
C/C(=N\NC(=N)N)c1ccc(NC(=O)c2ccc(Nc3cc[n+](C)c4cc([N+](=O)[O-])ccc34)cc2)cc1.Cl.[Cl-]	2.18	0.2	56	5.9	-0.24	0.13	0.74
C[n+]1ccc(Nc2ccc(NC(=O)Nc3ccc(Nc4cc[n+](C)c5ccc(N)cc45)cc3)cc2)cc1.Cc1ccc(S(=O)(=O)[O-])cc1.Cc1ccc(S(=O)(=O)[O-])cc1	1.74	0.51	6	3	0.17	0.28	1.2
